# How the values were obtained:
# [1] = system: cardiomyocytes; experiment: Western blot of Ndufa3, Atp5a and Sdha in mitochondria isolated from cardiomyocytes; assay type: in vivo, mouse; settings: cardiomyocytes of doxorubicin-treated Top2b+/+ mice, 72 h
# Experimental: Expression of Top2b was examined in the hearts of mice. After sacrifice, the heart was quickly removed and homogenized immediately in lysis buffer. After homogenization, the lysate was sonicated at 4° C. and an aliquot was removed for protein concentration measurement. The lysate was stored at −80° C. for western blot analysis. 20 μg of lysate proteins were electrophoresed and transferred to PVDF membranes. Blots were blocked with 5% non-fat dry milk, and incubated overnight at 4° C. with anti-Top2b antibody (Abcam). To detect mitochondrial proteins, the mitochondria were isolated from cardiomyocytes. The cardiomyocytes were isolated with a Langendorff perfusion system according to a published protocol3. Briefly, heart was removed and rinsed with ice-cold PBS twice before connecting to a Langendorff apparatus through the aorta. The heart was perfused first with perfusion buffer for 3 m at 37° C. (3 ml/min), then digestion buffer (enzyme-containing) buffer at 37° C. for 8-10 m. The heart was disintegrated manually and the tissue/cells were separated by using forceps. […] After incubation with HRP-conjugated secondary antibodies for 40 m at room temperature, the blots were detected with a luminol-based detection kit (ECL, GE Health Care).
# [2] = system: HL-1 cells; experiment: PGC-1 expression in HL-1 cells by RT-qPCR; assay type: cell-based; settings: doxorubicin 1 μm for 2 or 4 hours
# Experimental: FIGS. 7a-e: a, b. PGC-1 expression in HL-1 cells. […] Expression was measured with RT-qPCR. c, d. CHiP analysis in HL-1 cells. HL-1 cardiomyocytes were treated with (right bars) or without (left bars) DOX ([…]) for 2 hrs and isolated for ChIP using the Top2β antibody. The eluted DNA and Input were PCR amplified to detect specific promoter regions represented in the schematic above the respective ChIP data. […] CHiP study in cardiomyocytes. Cardiomyocytes were isolated from control (n=4) and Dox-treated (n=4) mice and subject to ChIP with the Top2b antibody. The data represent real-time PCR ratios for the fold-enrichment of Top2b at the respective promoters.
# [3] = system: cardiomyocytes; experiment: Microarray gene expression profiling with Ingenuity pathway analysis of cardiomyocytes isolated from doxorubicin-treated mice; assay type: in vivo, mouse
# Experimental: Microarray-based Ingenuity pathway analysis was next used to study the effect of doxorubicin treatment in the Top2b^+/+ and Top2b^Δ/Δ heart in an unbiased way. Mice were treated with tamoxifen for 5 consecutive days. […] Cardiomyocytes were prepared from excised heart and mRNAs were extracted for microarray analysis. Ingenuity pathway analysis of microarray data based on expression changes (>1.5 fold) of 59,306 genes upon doxorubicin treatment identified perturbation (mainly activation) in p53 and β-adrenergic signaling pathways in Top2b^+/+ cardiomyocytes (left bars), but not in Top2bΔ/Δ cardiomyocytes (center bars) (FIG. 1a, FIG. 4a, and Table 1). No difference was found between untreated Top2b^+/+ and Top2b^Δ/Δ cardiomyocytes (right bars). Of particular interest is a 200 fold up-regulation of the transcript encoding p53DINP1, a p53-inducible gene that regulates apoptosis (Sohal et al., 2001) (FIG. 4b). There were also increases in the transcript of Apaf1, Bax, and Fas, genes important in the apoptosis pathway (Ogasawara et al., 1983) (FIG. 4c). Both p53DINP1, Apaf1, Bax, Mdm2, and Fas up-regulation were only observed in doxorubicin-treated Top2b^+/+, but not Top2b^Δ/Δ cardiomyocytes. This is consistent with the previous observation that doxorubicin and Top2b formed a DNA ternary cleavage complex to induce DNA double strand breaks (DSBs), leading to cell death (9).
# To gain further insight into the pathogenesis of doxorubicin-induced cardiotoxicity, the transcriptome analysis was repeated 72 h following doxorubicin exposure. The Ingenuity pathway analysis of microarray data based on expression changes (>1.5 fold) of 59,306 genes upon doxorubicin treatment identified perturbation (mainly repression) in the mitochondria dysfunction and oxidative phosphorylation pathways in Top2b^+/+ cardiomyocytes (left bars), but not in Top2b^Δ/Δ cardiomyocytes (middle bars). No difference was found between untreated Top2b^+/+ and Top2b^Δ/Δ cardiomyocytes (right bars). There was a complete change in the ingenuity pathway profiles 72 h following doxorubicin exposure (FIGS. 1a,d). Early activation in the p53 pathway was replaced by mitochondrial dysfunction and oxidative phosphorylation pathways in the Top2b^+/+, but not Top2b^Δ/Δ cardiomyocytes (FIGS. 1a,d and Table 2). […] This was confirmed by qPCR of analysis of PGC-1α and PGC-1β transcripts (FIG. 1e). […] Consistent with the critical role exerted by PGC-1α and PGC-1β in mitochondrial biogenesis (Arany, Z. et al., 2006; Lai, L. et al., 2008), transcripts of key electron transport chains, such as Ndufa3 (NADH dehydrogenase 1 alpha subcomplex, 3, Complex1), Sdha (succinate dehydrogenase complex, subunit A, Complex II), and Atp5a (alpha subunit of Complex V) were decreased in the doxorubicin treated Top2b^+/+, but much less so in Top2b^Δ/Δ cardiomyocytes (FIG. 1e). […] Thus, in the presence of Top2b, doxorubicin caused decreases in transcripts of genes involved in the regulation of mitochondria biogenesis and function.
# Total RNA was extracted from cardiomyocytes isolated from mouse heart 16 or 72 h after treatment with doxorubicin (25 mg/kg) or drug vehicle using TRIZOL reagent (Invitrogen), then purified with RNeasy Mini Kit (Qiagen) according to the manufacturer's instructions. Purified RNA samples were shipped on dry ice to Miltenyi Biotec Inc. for microarray analysis. Quality control of the sample RNA was performed by the company. Before hybridization, 100 ng of each sample RNA was used for T7-based amplification and Cy3 labeling. The hybridization procedure was performed according to the Agilent 60-mer oligo microarray processing protocol using the Agilent Gene Expression Hybridization Kit (Agilent Technologies). After an overnight hybridization (65° C.) the microarrays were washed and scanned using Agilent Microarray Scanner System (Agilent Technologies).
# [4] = Top2b+/+ cardiomyocytes, 72 hrs after doxorubicin 25 mg/kg
# [5] = wild type hearts, 72 h after doxorubicin, not in Top2b deleted
structure (smiles),measurement,setting,value
COc1cccc2c1C(=O)c1c(O)c3c(c(O)c1C2=O)C[C@@](O)(C(=O)CO)C[C@@H]3O[C@H]1C[C@H](N)[C@H](O)[C@H](C)O1 [doxorubicin],"Protein levels of Ndufa3, Atp5a and Sdha in mitochondria",[1],reduction in the protein levels
same,Expression of PGC-1α,[2],Reduced expression
same,Expression of PGC-1β,[2],Reduced expression
same,"Up-regulated genes associated with p53 signaling pathway (expression change, genes listed in Table 1)","[3]; Top2b+/+ cardiomyocytes, 16 hrs after doxorubicin 25 mg/kg i.p.",Up-regulated genes (>1.5 fold) associated with p53 signaling pathway
same,Down-regulated genes associated with mitochondrial dysfunction and oxidative phosphorylation pathways (genes listed in Table 2),[3]; [4],Down-regulated Genes (>1.5 fold)
same,Up-regulated genes associated with mitochondrial dysfunction and oxidative phosphorylation pathways (genes listed in Table 2),[3]; [4],Up-regulatedGenes (>1.5 fold)
same,Expression change of the genes identified in the p53 pathway,"[3]; Top2bΔ/Δ cardiomyocytes, 16 hrs after doxorubicin 25 mg/kg i.p.","TP53INP1 is also called p53DINP1. The list was generated by Ingenuity software, and none of the genes identified in the p53 pathway had an expression change that reached 1.5 fold in Top2b^Δ/Δ cardiomyocytes."
same,Expression change of the genes identified in the mitochondrial dysfunction and oxidative phosphorylation pathways,"[3]; Top2bΔ/Δ cardiomyocytes, 72 hrs after doxorubicin 25 mg/kg","The list was generated by Ingenuity software, and none of the genes identified in the 2 pathways had an expression change that reached 1.5 fold in Top2b^Δ/Δ cardiomyocytes."
same,PGC-1α downregulation,[3]; [5],1.5 fold
same,PGC-1β downregulation,[3]; [5],1.5 fold

# From patent US9169509B2, “Topoisomerase 2b as a predictor of susceptibility to anthracycline-induced cardiotoxicity” (Board of Regents, The University of Texas System, priority 2013, dated 2015)
